Measured values as given in patent publication US20200289482A1, “CYSTIC FIBROSIS TRANSMEMBRANE CONDUCTANCE REGULATOR MODULATORS FOR TREATING AUTOSOMAL DOMINANT POLYCYSTIC KIDNEY DISEASE” (The Johns Hopkins University, priority 2017, published 2020).

How the values were obtained:
[1] = system: Hsp40; experiment: Western blot of Hsp40 in kidney tissue lysates; format: in vivo, mouse; settings: cyst induced pkd−/− mice, VX-809 30 mg/kg BW
Description: (§1) FIG. 7A, FIG. 7B, FIG. 7C, FIG. 7D, FIG. 7E, and FIG. 7F show chaperone expression is altered in mice by VX-809. (FIG. 7A-FIG. 7B) Representative Western blot images of HSP27, 70, 90 and HSP40 in lysates of kidney tissue from no cyst induced (ND), cyst induced with Doxycycline (D) or cyst induced pkd−/− mice treated with VX-809 (D+VX-809) 30 mg/kg BW. (FIG. 7C, FIG. 7D, FIG. 7E, and FIG. 7F) Columns represent averages±standard errors of HSP27, 70, 90 and HSP40 expression. Data were analyzed by non-parametric t-test. n=4 for each treated and control groups. Black lines between lanes represent representative experiments from the same gel. *P<0.05; **P<0.01; To facilitate their growth in the kidney, cysts have developed an altered network of proteins that most likely serves to protect them from stress (34). Next, it was determined whether VX-809 would alter the levels of Hsps in pkd−/− mice and in PN cells. […] Hsp 27, 70 and 90 are all elevated in cystic kidneys compared to normal controls. […] There is no change in Hsp 40. […] Both sets of data are consistent with an alteration in the heat shock response to cyst growth.

[2] = system: Hsp90; experiment: Cycloheximide chase, disappearance of Hsp90 in PN cells; format: cell-based, mouse; settings: VX-809 10 μM with cycloheximide 25 μM
Description: FIG. 9A, FIG. 9B, FIG. 9C, FIG. 9D, FIG. 9E, FIG. 9F, FIG. 9G, and FIG. 9H show Hsp27, HSp70, and Hsp90 expression in PN cells treated with VX-809 and/or cycloheximide. (A) Pkd1 null (PN) cells were treated with VX-809 (10 μM) and/or with cycloheximide (25 μM) for indicated time points before being harvested for the assay. (FIG. 9A) Western blot showing expression of Hsp27, Hsp70, and Hsp90 in VX-809-(16 h), cycloheximide-treated, or control PN cells. ((FIG. 9B. (FIG. 9C, and (FIG. 9D) Columns represent averages±standard errors of Hsp27, Hsp70, and Hsp90 expression in cells treated with VX-809 and/or cycloheximide. ((FIG. 9E) Western blot showing expression of Hsp27, Hsp70, and Hsp90 in PN cells treated with VX-809+cycloheximide or control PN cells. ((FIG. 9F, (FIG. 9G, and (FIG. 9H) Columns represent averages±standard errors of Hsp27, Hsp70, and Hsp90 expression in cells treated only with cycloheximide or in control PN cells. Data were analyzed by non-parametric t-test. The experiments were repeated 3-5 times. *P<0.05, **P<0.01;
To gain more insight into the mechanism whereby VX-809 alters Hsp protein levels, translation was inhibited by using cycloheximide (35) and the disappearance of the three Hsps was monitored. […] Hsp 90 was reduced by approximately 25%, and Hsp27 was unchanged.

[3] = system: GADD153; experiment: Western blot of ER stress marker GADD153 in kidney tissue; format: in vivo, mouse; settings: cyst containing mice, VX-809 30 mg/kg BW
Description: FIG. 11A. FIG. 11B, FIG. 11C, FIG. 11D, and FIG. 11E show expression of ER stress markers GRP78, ErO1, and GADD in Pkd1^−/− mice treated with VX-809. (FIG. 11A & FIG. 11D) Representative Western blot images of GRP78, ErO1, and GADD in lysates of kidney tissue from no cyst induced (ND), cyst induced with doxycycline (D) or cyst induced pkd−/− mice treated with VX-809 (D+VX-809) 30 mg/kg BW. (FIG. 11B, FIG. 11C and FIG. 11E) Columns represent averages±standard errors of GRP78, ErO1, and GADD153 expression. Data were analyzed by non-parametric t-test. n=4 for each treated and control groups. Black lines between lanes represent representative experiments from the same gel but loaded in different lanes. **P<0.01, ***P<0.001;
Given that VX-809 alters an ensemble of Hsps, it was evaluated whether VX-809 alters proteins associated with ER stress. To address this question, the levels of three ER stress-associated proteins were measured, 78-kDa glucose-regulated protein (GRP78), ER oxidoreductin 1 (Ero1) and DNA damage-inducible protein 3 (GADD153), also known as C/EBP homologous protein (CHOP) (37). The results are depicted in FIG. 11 show no changes in GRP78 or Ero1 in response to VX-809.

[4] = target: T1, CFTR (Mus musculus, UniProt P26361); experiment: CFTR expression in PN cells; format: cell-based; set-up: endogenous in cells; host or cells: PN (Pkd1-null mouse proximal tubule) cells; settings: 10 μM VX-809 for 16 h vs control PN cells
Description: (§2) FIG. 19A, FIG. 19B, FIG. 19C, and FIG. 19D show CFTR expression in PN cells treated with VX-809 (10 μM) for 16 h.
(§3) The expression of CFTR was evaluated in PN cells treated with VX-809 and control PN cells. PN cells were treated with 10 μM VX-809 for 16 h or a control.

[5] = system: Hsp90; experiment: Western blot of Hsp90 in kidney tissue lysates; format: in vivo, mouse; settings: cyst induced pkd−/− mice, VX-809 30 mg/kg BW
Description: as §1

[6] = target: T1, CFTR; experiment: Confocal microscopy localization of CFTR; format: cell-based; set-up: endogenous in cells; settings: VX-809 treated vs control cells; ER, Golgi and PM markers
Text: FIG. 18A and FIG. 18B show images of confocal microscopy localization studies of CFTR and localization markers in control and treated cells (FIG. 18A) and graphs showing Pearson's correlation coefficient for CFTR and localization markers in control and VX-809 treated cells (FIG. 18B).
(§4) The localization of PC2 and CFTR in control cells was compared to the localization of PC2 and CFTR localization in VX-809 treated cells.

[7] = system: PC2; experiment: Confocal microscopy localization of PC2; format: cell-based; settings: VX-809 treated vs control cells; ER, Golgi and PM markers
Text: FIG. 17A and FIG. 17B show images of confocal microscopy localization studies of PC2 and localization markers in control and treated cells (FIG. 17A) and graphs showing Pearson's correlation coefficient for PC2 and localization markers in control and VX-809 treated cells (FIG. 17B).
as §4

[8] = target: T1, CFTR; experiment: Biotinylation of CFTR in PN cells; format: cell-based; set-up: endogenous in cells; host or cells: PN (Pkd1-null mouse proximal tubule) cells; settings: VX-809 treatment vs control PN cells
Description: as §2, §3

T1 sequence (P26361 whole entry): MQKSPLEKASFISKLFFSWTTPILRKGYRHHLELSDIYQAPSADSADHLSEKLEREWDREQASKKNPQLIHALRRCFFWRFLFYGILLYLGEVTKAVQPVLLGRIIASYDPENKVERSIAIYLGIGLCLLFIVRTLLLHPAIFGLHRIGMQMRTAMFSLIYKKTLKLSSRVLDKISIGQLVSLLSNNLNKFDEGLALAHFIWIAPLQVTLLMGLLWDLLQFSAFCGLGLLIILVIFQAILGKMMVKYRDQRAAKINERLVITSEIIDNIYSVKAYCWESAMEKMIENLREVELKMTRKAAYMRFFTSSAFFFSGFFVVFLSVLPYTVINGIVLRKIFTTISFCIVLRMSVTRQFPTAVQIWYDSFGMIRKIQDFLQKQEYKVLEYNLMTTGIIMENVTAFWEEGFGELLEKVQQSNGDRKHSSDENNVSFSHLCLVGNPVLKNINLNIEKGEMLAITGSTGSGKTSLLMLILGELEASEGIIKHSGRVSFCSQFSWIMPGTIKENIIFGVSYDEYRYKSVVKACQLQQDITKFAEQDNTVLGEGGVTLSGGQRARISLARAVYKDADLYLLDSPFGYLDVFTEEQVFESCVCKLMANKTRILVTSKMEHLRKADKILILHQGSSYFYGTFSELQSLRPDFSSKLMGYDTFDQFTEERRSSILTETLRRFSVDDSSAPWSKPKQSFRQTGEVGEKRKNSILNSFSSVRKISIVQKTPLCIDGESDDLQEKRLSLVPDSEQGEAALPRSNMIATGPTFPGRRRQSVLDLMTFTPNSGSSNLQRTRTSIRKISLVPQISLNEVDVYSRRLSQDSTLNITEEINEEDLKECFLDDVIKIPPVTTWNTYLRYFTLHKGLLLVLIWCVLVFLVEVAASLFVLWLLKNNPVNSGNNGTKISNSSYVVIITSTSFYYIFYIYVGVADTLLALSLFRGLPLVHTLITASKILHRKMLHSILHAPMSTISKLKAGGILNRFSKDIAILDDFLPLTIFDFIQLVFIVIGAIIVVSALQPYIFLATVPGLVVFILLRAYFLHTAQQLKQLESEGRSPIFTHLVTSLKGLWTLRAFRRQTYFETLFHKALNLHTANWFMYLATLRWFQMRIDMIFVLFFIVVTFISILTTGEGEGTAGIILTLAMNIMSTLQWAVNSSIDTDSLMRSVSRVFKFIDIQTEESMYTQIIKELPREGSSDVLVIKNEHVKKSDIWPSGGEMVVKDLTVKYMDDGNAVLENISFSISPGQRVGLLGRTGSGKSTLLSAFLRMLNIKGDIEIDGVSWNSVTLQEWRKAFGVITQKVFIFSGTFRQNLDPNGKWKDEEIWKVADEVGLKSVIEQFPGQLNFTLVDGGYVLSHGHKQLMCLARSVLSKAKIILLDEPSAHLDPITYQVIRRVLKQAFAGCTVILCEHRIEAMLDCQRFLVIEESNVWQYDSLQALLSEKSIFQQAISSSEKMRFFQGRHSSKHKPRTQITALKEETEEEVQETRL

CFTR expression [4]: enhanced CFTR expression | biotinylation of CFTR [8]: significantly increased
Substance: lumacaftor [VX-809]
Hsp40 expression in kidneys [1]: no change | Hsp 90 reduction over the 8-h period [2]: approximately 25% | GADD153 expression (Western blot) [3]: equally dramatic reduction in GADD153 | Hsp90 expression in kidneys [5]: significantly less expression | localization of CFTR [6]: statistically significant move of CFTR from the ER to Basolateral and Apical Membrane | localization of PC2 [7]: statistically significant move of PC2 from the ER to Golgi
